Laboratory results: US10167295B2 (priority 2013, dated 2019)
Entries after “also recorded” stand apart in the source; their conditions may differ. Counter-ions that a name gives are not always drawn. Like-named read-outs stand apart in the source and are kept apart here.

Columns and labels:
[1] = system: patients with post-operative pain; assay: Clinical studies of analgesia in patients with post-operative pain; format: in vivo, human; conditions: for sex difference in analgesia: women vs men, post-operative pain (FIG. 8, 9)
σ2 receptor = molecular target: T1, σ2 receptor (Homo sapiens, UniProt Q5BJF2); format: binding; conditions: for inhibition at 10 µM: read-out: Inhibition (%) Sigma2 (σ2)
T1 construct: MDS Pharma Services (contract laboratory that ran the assay)

[2] = system: patients with post-operative pain; conditions: cited from earlier work; for analgesia in earlier clinical studies (in words): patients with post-operative pain, literature of the applicants
NOP [3] = molecular target: T2, NOP (Homo sapiens, UniProt P41146); format: binding; set-up: MDS Pharma Services (contract laboratory that ran the assay); conditions: for binding to the NOP receptor (in words): 10 μM; for inhibition at 10 µM: read-out: Inhibition (%) Nociceptin/orphanin F/Q (NOP)
NOP [4] = molecular target: T2, NOP; format: cell-based
MOR [5] = molecular target: T3, MOR (Homo sapiens, UniProt P35372); assay: biochemical; format: binding
KOR = KOR (Homo sapiens, UniProt P41145); assay: biochemical; format: binding
MOR [6] = molecular target: T3, MOR; assay: biochemical; format: binding; remark: listed apart in the source
DOR [7] = molecular target: T4, DOR (Homo sapiens, UniProt P41143); assay: biochemical; format: binding
DOR [8] = molecular target: T4, DOR; assay: biochemical; format: binding; remark: listed apart in the source

T2 sequence (P41146 whole entry): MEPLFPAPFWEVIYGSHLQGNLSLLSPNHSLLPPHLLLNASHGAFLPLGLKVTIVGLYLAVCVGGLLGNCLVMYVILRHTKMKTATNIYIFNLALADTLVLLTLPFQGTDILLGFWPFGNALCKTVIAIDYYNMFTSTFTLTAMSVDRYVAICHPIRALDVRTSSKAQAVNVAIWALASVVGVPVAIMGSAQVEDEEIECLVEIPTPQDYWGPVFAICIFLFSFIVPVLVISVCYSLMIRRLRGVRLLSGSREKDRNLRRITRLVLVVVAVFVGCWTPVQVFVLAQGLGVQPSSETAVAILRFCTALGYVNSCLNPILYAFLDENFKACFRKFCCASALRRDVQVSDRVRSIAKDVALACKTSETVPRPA
T3 sequence (P35372 whole entry): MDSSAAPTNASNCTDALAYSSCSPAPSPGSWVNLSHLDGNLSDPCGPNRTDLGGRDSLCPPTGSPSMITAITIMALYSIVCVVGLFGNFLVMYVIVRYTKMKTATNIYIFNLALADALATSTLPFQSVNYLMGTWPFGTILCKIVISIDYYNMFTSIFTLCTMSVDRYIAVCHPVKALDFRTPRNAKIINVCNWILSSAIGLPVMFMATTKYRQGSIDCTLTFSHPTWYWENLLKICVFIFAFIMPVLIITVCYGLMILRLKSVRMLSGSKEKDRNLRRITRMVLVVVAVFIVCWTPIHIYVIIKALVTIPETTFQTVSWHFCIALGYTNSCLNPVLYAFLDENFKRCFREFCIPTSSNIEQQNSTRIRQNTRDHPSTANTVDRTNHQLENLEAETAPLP
T4 sequence (P41143 whole entry): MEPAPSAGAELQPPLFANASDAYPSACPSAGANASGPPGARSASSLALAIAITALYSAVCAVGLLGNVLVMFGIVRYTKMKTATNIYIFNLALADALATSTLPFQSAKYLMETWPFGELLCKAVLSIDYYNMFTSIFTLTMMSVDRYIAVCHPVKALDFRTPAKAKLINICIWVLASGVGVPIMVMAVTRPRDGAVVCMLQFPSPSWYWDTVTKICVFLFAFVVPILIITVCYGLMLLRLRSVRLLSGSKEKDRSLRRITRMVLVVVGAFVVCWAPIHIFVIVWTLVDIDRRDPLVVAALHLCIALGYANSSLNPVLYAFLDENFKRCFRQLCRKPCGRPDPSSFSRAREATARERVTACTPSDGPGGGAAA
T1 sequence (Q5BJF2 whole entry, species assumed): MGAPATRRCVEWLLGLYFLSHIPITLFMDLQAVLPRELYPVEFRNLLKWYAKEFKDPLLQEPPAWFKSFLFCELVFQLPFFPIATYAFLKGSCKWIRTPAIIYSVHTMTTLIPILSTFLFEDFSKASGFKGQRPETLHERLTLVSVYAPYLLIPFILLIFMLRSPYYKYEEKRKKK
Sequence of KOR (P41145 whole entry): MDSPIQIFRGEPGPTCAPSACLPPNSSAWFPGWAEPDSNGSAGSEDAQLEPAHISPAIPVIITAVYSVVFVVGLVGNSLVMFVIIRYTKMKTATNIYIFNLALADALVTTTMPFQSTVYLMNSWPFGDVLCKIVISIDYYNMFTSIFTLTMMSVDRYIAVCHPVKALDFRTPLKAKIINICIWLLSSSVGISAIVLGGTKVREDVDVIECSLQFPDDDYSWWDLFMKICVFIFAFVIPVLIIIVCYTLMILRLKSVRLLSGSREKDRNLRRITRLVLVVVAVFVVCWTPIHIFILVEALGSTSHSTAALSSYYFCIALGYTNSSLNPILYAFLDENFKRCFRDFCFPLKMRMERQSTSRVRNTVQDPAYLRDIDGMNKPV

Q: With `Oc1ccc2c(c1)[C@@]13CCCC[C@@]1(O)[C@@H](C2)N(CC1CCC1)CC3` [Butorphanol] as the compound, how does the “sex difference in analgesia” value [1] read?
A: significantly great analgesia in women than in men; also recorded: significantly greater analgesia in females than in males

Q: Which results are given for `Oc1ccc2c3c1O[C@H]1[C@@H](O)CC[C@@]4(O)[C@@H](C2)N(CC2CCC2)CC[C@]314` [Nalbuphine, Nalbuphine hydrochloride]?
A: inhibition at 10 µM (σ2 receptor): 15%; time by which men reported increasing pain (anti-analgesia) ([2]; men, placebo controlled study (Gear 1999)): ~90 min; analgesia in earlier clinical studies (in words) [2]: worse pain than those receiving placebo; binding to the NOP receptor (in words) (NOP [3]; hydrochloride): binds to NOP receptors; inhibition at 10 µM (NOP [3]): 12%; sex difference in analgesia ([1]; hydrochloride): significantly greater analgesia in females than in males; sex difference in analgesia ([1]; listed as nalbuphine, hydrochloride): significantly great analgesia in women than in men

Q: What does the source list for `C=CCN1CC[C@]23c4c5ccc(O)c4O[C@H]2C(=O)CC[C@@]3(O)[C@H]1C5` [Naloxone, naloxone hydrochloride]?
A: binding to the σ2 receptor (in words) (σ2 receptor; 10 μM): does not bind to the σ2 receptor; inhibition at 10 µM (σ2 receptor): -2%; analgesia in earlier clinical studies (in words) [2]: blocks anti-analgesia and produces enhanced and prolonged analgesia; effect on nalbuphine anti-analgesia in males ([1]; naloxone 0.4 mg in combination with nalbuphine, men (FIG. 10 left)): abolished the anti-analgesic effect of nalbuphine in males resulting in significant analgesia; effect on nalbuphine analgesia in females ([1]; naloxone 0.4 mg in combination with nalbuphine, women (FIG. 10 right)): enhanced nalbuphine analgesia in females

Q: Which results are given for `CC(C)=CCN1CCC2(C)c3cc(O)ccc3CC1C2C.CC(O)C(=O)O` (centres unmarked) [Pentazocine, Pentazocine lactate]?
A: inhibition at 10 µM (σ2 receptor): 81%; binding to the NOP receptor (in words) (NOP [3]): binds to NOP receptors; inhibition at 10 µM (NOP [3]): 24%; sex difference in analgesia [1]: significantly great analgesia in women than in men; also recorded: significant difference in analgesia experience by females and males

Q: With `NCC(CC(=O)O)c1ccc(Cl)cc1` (centres unmarked) [baclofen] as the compound, how does the “effect on the analgesic effect of pentazocine” value ([2]; oral, from three days prior to surgery, pentazocine 30 mg i.v. (Gordon 1995)) read?
A: not significantly different from that of placebo

Q: With `CN(C)CCCN1c2ccccc2Sc2ccc(Cl)cc21` [chlorpromazine] as the compound, how does the “analgesia in earlier clinical studies (in words)” value [2] read?
A: enhanced the analgesic effect of nalbuphine

Q: With `CN(C(=O)/C=C/c1ccoc1)[C@@H]1CCC2(O)C3Cc4ccc(O)c5c4[C@@]2(CCN3CC2CC2)[C@H]1O5` (some centres unmarked) [compound 27035, TRK-820 HCl] as the compound, how does the “NOP Tango Agonist” value (NOP [4]) read?
A: 3.5

Q: And the MOR (MOR [5])?
A: 94

Q: And the inhibition at 10 µM (MOR [5]; read-out: MOR mean % inhibition)?
A: 93.8%

Q: What about the KOR (KOR) of the same compound?
A: 91

Q: What about the inhibition at 10 µM (KOR; read-out: KOR mean % inhibition) of the same compound?
A: 90.5%

Q: And the Ki (MOR [6])?
A: 1.1 nM

Q: And the DOR (DOR [7])?
A: 95

Q: What about the inhibition at 10 µM (DOR [7]; read-out: DOR mean % inhibition) of the same compound?
A: 95.3%

Q: And the Ki (DOR [8])?
A: 42 nM

Q: For `O=C(CCCN1CCC(O)(c2ccc(Cl)cc2)CC1)c1ccc(F)cc1` [haloperidol], which “analgesia in earlier clinical studies (in words)” value [2] is on record?
A: enhanced the analgesic effect of nalbuphine
